Assay results taken from ChEMBL document CHEMBL1201862, “PubChem BioAssay data set” (2004).
Values joined by “and” are separate entries in the source; they are usually repeats but may differ in a detail not shown here. Equal entries are not always repeated. Active and inactive are the calls of the source.

How the values were obtained:
[1] = target: ELAV-like protein 1 (Homo sapiens, UniProt Q15717); assay: Identify HuR specific inhibitors.; type: functional
[2] = CTGF mRNA reduction under YAP1 overexpression, dose response, mechanism study for YAP1 pathway inhibitor project, DLD1 cells, RT-qPCR, cherry-pick (AID 1053127); type: functional, cell-based; details: DLD-1
[3] = target: Melanin-concentrating hormone receptor 1 (Homo sapiens, UniProt Q99705); assay: Fluorescence-based counterscreen for antagonists of the G-protein coupled receptor 7 (GPR7): cell-based high throughput dose response assay to identify antagonists of the melanin-concentrating hormone receptor 1 (MCHR1).; type: functional
Chain of Melanin-concentrating hormone receptor 1 (Q99705 whole entry): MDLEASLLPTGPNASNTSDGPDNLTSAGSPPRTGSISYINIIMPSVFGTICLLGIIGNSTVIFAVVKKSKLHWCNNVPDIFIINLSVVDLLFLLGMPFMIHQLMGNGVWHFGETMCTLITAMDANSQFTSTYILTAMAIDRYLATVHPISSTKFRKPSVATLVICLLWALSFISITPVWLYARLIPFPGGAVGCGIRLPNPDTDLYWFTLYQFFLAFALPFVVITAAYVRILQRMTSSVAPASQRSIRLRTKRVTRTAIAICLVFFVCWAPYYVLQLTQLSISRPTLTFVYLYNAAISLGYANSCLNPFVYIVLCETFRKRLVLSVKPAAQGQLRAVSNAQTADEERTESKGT

[4] = target: Neuropeptides B/W receptor type 1 (Homo sapiens, UniProt P48145); assay: Fluorescence-based dose response cell-based high throughput screening assay to identify antagonists of the G-protein coupled receptor 7 (GPR7). [Related pubchem assays: 1952 (Screening assay (GPR7 antagonists).), 1880 (Summary AID.)]; type: functional
Chain of Neuropeptides B/W receptor type 1 (P48145 whole entry): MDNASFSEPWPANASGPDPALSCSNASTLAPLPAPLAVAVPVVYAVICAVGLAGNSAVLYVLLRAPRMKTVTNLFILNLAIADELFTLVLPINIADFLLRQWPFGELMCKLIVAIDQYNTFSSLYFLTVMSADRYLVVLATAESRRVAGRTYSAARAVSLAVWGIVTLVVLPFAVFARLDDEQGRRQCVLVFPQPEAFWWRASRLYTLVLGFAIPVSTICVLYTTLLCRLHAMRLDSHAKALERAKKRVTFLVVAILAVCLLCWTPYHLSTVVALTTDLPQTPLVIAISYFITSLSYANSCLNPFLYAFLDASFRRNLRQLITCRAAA

[5] = Plasmodium falciparum Dd2 Sybr green parasite growth Measured in Cell-Based and Microorganism Combination System Using Plate Reader - 2153-01_Inhibitor_Dose_DryPowder_Activity_Set10.; type: functional
[6] = HepG2 cell cytotoxicity, dose response, cytotoxicity control, cherry-picked samples (AID 1159577); type: functional, cell-based
[7] = P. falciparum 3D7-ScDHODH growth inhibitors, dose response, SYBR Green, dry powder samples (AID 1159570); type: functional, cell-based;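 note: parasite growth measured after 72 hours of compound exposure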
[8] = P. falciparum ATP4 D1247Y mutant growth inhibitors, dose response, NITD609-resistant line, SYBR Green, dry powder (AID 1159571); type: functional, cell-based;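 note: parasites synchronized at ring stage by sorbitol before testing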
[9] = P. falciparum Dd2 growth inhibitors, dose response, SYBR Green, cherry-picked samples (AID 1159567); type: functional, cell-based
[10] = P. falciparum Dd2 growth inhibitors, dose response, SYBR Green, dry powder samples (AID 1159566); type: functional, cell-based;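 note: potency for growth inhibition with lower SYBR green DNA signal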
[11] = target: T1, Short transient receptor potential channel 4 (Mus musculus, UniProt Q9QUQ5); assay: mouse TRPC4 channel inhibitors, dose response, cell-based, HEK293 TRPC4/mu-opioid, Fluo-4 calcium (AID 434942); type: functional;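 note: potency of inhibitors blocking the TRPC4 calcium response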
T1 sequence (Q9QUQ5 whole entry): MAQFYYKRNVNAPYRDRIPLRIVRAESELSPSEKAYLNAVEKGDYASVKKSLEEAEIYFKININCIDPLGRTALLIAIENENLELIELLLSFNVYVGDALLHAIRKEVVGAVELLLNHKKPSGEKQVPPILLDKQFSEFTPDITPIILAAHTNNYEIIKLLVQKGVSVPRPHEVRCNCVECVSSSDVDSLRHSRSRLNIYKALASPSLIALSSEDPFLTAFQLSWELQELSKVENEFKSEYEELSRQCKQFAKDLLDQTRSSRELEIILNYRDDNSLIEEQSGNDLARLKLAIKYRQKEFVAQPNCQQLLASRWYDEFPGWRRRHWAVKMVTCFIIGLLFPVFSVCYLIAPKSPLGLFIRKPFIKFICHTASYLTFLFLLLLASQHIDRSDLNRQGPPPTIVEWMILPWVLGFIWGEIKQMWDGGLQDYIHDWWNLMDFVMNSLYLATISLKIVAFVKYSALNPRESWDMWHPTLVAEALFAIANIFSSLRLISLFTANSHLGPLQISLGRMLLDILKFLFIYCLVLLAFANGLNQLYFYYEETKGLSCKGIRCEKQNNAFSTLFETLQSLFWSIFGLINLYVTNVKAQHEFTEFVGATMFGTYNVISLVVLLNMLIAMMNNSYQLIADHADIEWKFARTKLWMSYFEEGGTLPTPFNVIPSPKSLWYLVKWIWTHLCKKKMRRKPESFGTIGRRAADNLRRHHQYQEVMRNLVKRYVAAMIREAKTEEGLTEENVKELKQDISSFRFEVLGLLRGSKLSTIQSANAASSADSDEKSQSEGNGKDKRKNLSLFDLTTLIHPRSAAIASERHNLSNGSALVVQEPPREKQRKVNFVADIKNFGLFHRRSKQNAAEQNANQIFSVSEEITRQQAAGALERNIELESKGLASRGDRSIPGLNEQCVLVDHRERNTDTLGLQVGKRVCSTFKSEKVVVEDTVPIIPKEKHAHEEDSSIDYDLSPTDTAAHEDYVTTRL

[12] = target: Voltage-gated inwardly rectifying potassium channel KCNH2 (Homo sapiens, UniProt Q12809); assay: hERG protection from proarrhythmic block, potency, dose response, cell-based, thallium flux (AID 2121); type: ADME
Chain of Voltage-gated inwardly rectifying potassium channel KCNH2 (Q12809 whole entry): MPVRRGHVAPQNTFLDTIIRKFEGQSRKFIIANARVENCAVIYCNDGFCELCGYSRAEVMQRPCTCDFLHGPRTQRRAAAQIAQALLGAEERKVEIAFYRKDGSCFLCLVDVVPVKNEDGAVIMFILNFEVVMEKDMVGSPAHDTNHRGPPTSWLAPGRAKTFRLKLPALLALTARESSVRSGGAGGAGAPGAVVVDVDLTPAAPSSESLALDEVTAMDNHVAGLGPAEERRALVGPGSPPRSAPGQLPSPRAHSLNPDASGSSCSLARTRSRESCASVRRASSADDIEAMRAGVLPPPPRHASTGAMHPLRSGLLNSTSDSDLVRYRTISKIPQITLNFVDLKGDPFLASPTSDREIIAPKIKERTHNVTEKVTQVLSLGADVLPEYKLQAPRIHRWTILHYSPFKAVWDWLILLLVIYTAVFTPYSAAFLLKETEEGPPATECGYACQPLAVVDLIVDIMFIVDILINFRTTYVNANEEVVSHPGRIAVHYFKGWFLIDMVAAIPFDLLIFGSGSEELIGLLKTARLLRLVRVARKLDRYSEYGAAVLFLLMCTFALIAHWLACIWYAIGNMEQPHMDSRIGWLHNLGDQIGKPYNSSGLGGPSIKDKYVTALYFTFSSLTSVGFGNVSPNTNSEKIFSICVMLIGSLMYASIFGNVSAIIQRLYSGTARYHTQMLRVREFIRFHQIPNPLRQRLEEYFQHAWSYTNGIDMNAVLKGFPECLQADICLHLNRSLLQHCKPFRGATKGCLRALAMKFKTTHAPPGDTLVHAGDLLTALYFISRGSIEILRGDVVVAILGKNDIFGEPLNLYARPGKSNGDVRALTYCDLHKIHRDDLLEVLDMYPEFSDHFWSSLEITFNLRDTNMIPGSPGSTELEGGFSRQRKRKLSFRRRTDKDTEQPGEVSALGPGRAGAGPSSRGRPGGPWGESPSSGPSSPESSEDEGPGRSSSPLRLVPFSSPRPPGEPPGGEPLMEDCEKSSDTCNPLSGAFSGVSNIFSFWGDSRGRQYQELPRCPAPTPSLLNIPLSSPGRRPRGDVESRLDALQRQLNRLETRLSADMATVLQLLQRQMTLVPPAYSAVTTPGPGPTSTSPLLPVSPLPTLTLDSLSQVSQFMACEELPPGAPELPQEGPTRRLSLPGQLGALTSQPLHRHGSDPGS

[13] = target: T2, Tyrosine-protein phosphatase non-receptor type 7 (Homo sapiens, UniProt P35236); assay: inhibitors of human HePTP phosphatase, […], biochemical, absorbance, leukemia target (AID 521); type: functional
T2 sequence (P35236 whole entry): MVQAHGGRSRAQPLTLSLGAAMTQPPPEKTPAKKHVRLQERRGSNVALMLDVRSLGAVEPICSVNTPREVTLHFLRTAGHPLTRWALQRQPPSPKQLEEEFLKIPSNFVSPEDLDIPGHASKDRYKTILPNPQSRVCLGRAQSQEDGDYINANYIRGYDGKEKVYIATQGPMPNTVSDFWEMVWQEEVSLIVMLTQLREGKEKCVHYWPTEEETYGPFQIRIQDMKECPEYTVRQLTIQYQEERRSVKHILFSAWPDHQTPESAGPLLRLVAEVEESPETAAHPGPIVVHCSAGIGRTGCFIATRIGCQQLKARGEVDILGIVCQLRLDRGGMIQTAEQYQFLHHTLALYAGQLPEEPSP

[14] = target: Sphingosine 1-phosphate receptor 2 (Homo sapiens, UniProt O95136); assay: Dose Response Cell Based Assay for Agonists of the S1P2 Receptor. [Related pubchem assays: 729, 736, 843 ]; type: functional
Chain of Sphingosine 1-phosphate receptor 2 (O95136 whole entry): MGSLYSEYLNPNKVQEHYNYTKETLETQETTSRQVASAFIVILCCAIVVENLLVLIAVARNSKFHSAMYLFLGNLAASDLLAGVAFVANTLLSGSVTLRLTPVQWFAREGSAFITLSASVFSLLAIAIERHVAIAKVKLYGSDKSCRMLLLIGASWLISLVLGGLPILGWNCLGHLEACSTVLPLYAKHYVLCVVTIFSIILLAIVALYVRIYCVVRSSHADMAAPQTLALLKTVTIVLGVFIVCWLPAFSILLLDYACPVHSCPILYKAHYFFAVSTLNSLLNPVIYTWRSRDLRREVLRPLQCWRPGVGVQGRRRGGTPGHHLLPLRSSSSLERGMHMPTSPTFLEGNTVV

[15] = target: Nonstructural protein 1 (Influenza A virus, UniProt Q194T2); type: functional, Influenza A virus (A/California/07/2009(H1N1))
Chain of Nonstructural protein 1 (Q194T2 whole entry): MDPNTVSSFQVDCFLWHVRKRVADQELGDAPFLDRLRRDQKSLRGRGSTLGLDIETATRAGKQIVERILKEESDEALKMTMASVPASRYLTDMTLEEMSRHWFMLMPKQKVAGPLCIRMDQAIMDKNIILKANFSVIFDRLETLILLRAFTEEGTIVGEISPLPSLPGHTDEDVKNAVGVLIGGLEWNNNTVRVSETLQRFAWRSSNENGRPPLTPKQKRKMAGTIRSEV

[16] = target: Mannose-6-phosphate isomerase (Homo sapiens, UniProt P34949); assay: human PMI inhibitors, high substrate, primary screen, biochemical, fluorescence intensity, high mannose 6-phosphate (AID 1220)
Chain of Mannose-6-phosphate isomerase (P34949 whole entry): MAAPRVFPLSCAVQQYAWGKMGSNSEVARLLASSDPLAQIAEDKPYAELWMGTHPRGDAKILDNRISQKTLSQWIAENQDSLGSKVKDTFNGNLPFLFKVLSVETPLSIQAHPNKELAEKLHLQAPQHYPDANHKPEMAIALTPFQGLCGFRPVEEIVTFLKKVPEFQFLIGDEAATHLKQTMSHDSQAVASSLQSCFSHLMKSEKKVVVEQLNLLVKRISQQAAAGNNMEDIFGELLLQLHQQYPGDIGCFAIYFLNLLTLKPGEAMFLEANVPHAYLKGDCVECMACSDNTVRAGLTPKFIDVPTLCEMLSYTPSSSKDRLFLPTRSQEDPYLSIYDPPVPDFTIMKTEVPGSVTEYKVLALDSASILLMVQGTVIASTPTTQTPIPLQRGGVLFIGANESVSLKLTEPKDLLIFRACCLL

[17] = target: T3, Bcl-2-related protein A1 (Mus musculus, UniProt Q07440); assay: Bfl-1 inhibitors, primary screen, biochemical, fluorescence polarization, FITC-Bid, mouse (AID 432)
T3 sequence (Q07440 whole entry): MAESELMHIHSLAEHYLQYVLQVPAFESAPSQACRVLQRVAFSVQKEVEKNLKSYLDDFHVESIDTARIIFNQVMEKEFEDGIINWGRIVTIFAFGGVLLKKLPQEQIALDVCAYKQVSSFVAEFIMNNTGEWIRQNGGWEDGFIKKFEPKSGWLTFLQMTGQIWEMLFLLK

[18] = target: T3, Bcl-2-related protein A1; assay: Bfl-1 inhibitors blocking BH3 peptide binding, confirmation, biochemical, TR-FRET, mouse Bfl-1 (AID 621);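 note: TR-FRET binding of GST-Bfl-1 to FITC-labelled Bid peptide via terbium antibody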
[19] = target: fMet-Leu-Phe receptor (Homo sapiens, UniProt P21462); assay: FPR ligands, dose response (AID 519); type: functional
Chain of fMet-Leu-Phe receptor (P21462 whole entry): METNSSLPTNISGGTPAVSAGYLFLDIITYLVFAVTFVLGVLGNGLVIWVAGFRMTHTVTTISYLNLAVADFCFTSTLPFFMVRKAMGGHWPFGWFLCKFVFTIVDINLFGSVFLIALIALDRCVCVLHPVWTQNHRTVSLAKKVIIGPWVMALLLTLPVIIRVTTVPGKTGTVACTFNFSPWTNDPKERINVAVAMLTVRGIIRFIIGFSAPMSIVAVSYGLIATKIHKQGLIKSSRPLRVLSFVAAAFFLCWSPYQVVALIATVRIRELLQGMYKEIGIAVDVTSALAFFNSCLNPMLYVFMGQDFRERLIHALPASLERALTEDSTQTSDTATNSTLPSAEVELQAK

Chain of ELAV-like protein 1 (Q15717 whole entry): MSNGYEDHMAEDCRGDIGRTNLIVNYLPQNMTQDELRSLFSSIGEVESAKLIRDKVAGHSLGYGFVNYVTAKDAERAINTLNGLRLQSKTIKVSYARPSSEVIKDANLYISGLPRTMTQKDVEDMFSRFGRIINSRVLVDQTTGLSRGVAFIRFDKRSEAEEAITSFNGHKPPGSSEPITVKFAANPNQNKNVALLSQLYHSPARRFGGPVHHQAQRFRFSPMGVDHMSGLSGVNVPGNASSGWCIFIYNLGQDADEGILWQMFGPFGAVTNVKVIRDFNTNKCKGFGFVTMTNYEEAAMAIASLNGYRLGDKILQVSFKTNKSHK

Q: Which IC50 [1] does the source give for `CC1=CC(C)(C)N=C(S)N1c1cccc2cc(S(=O)(=O)O)ccc12` here?
A: 14.7 µM (inactive)

Q: Which AC50 [2] does the source give for `CC(C)(C)[S@@+]([O-])N1Cc2cc(C(=O)NCCc3ccncc3)nc(-c3cccc(-c4cccc(C#N)c4)c3)c2[C@H]1CCO` here?
A: 0.498 µM (active)

Q: Which results are given for `CCc1ccc(Cn2nnc(C(=O)Nc3ccc(OC)cc3OC)c2N)cc1`?
A: IC50 [3]: > 43.8 µM (not active); IC50 [4]: > 43.8 µM (not active)

Q: Which AC50 [5] does the source give for `COc1ccc(-c2ccccc2[C@H]2[C@@H](C#N)N(C(=O)C3CCCC3)[C@@H]2CO)cc1` here?
A: 0.867 µM (active)

Q: What about the AC50 [6] of the same molecule?
A: > 42 µM (inactive)

Q: And the AC50 [7]?
A: 0.69 µM (active)

Q: And the AC50 [8]?
A: 2.54 µM (active)

Q: And the AC50 [9]?
A: 1.34 µM (active)

Q: And the AC50 [10]?
A: 0.717 µM (active)

Q: Which EC50 [11] does the source give for `O=C(O)c1ccc(Cl)cc1Nc1nc2cc(Cl)ccc2o1` here?
A: 5.31 µM (active)

Q: And the EC50 [12]?
A: 11.3 µM (active) and 12 µM (active)

Q: Which IC50 [13] does the source give for `CC(C)(C)OC(=O)N1CC(O)CC1C(=O)OCC(=O)c1ccc(Cl)cc1` (centres undefined) here?
A: > 100 µM (not active)

Q: With `CCOC(=O)CN(C(=O)CSc1nnc(COc2ccc(OC)cc2)n1C)c1ccccc1` as the molecule, how does the EC50 [14] read?
A: > 50 µM (not active)

Q: With `COc1ccc(Nc2c([N+](=O)[O-])ccc3c2=NC2(CCCCC2)N=3)cc1` as the molecule, how does the IC50 [15] read?
A: 11.1 µM (active)

Q: And the IC50 [16]?
A: > 50 µM (not active)

Q: For `O=C(C1=C(O)C(=O)N(c2ncccn2)C1c1cccc(Cl)c1)c1ccco1` (centres undefined), which IC50 [17] is on record?
A: > 100 µM (not active)

Q: And the IC50 [18]?
A: > 100 µM (not active)

Q: And the Ki [19]?
A: > 66.7 µM (inactive)
